The data set can be described thus: In-vivo PET imaging in rhesus monkey to determine brain penetrance. As to conditions: healthy rhesus monkey. From the text:
The non-human primate was kept immobilized in the extended imaging bed inside the gantry of the PET imaging system (MicroPET® P4, Siemens Preclinical Solutions, Knoxville, TN). The scanning region was a single bed position from approximately the top of skull and extending through the lower neck area, to fit into the 7.6 cm MicroPET system axial FOV. A 10-minute transmission scan was acquired using a ^57Co point source for the purpose of attenuation correction of the subsequent emission image. Approximately 0.96 mCi of [^11C]-(R)-4-(2-acryloyl-1,2,3,4-tetrahydroisoquinolin-5-yl)-5-fluoro-2,3-dimethyl-1H-indole-7-carboxamide was injected IV and a 60-minute dynamic PET image was acquired. PET images were reconstructed with a filtered back projection (FBP) or MAP algorithm with attenuation correction. Using the AMIDE software package, an ROI encompassing the whole brain was manually drawn in the PET images. Mean standardized uptake value (SUV), which is normalized with body weight (kg) and injected dose (mCi), was calculated and plotted as a function of time to obtain a TAC. […] In healthy rhesus monkey, as in WT mice. there is very low brain expression of BTK in a non-diseased state.

As to `C=C[11C](=O)N1CCc2c(cccc2-c2c(F)cc(C(N)=O)c3[nH]c(C)c(C)c23)C1` [[^11C]-(R)-4-(2-acryloyl-1,2,3,4-tetrahydroisoquinolin-5-yl)-5-fluoro-2,3-dimethyl-1H-indole-7-carboxamide], the “brain time-activity curve (TAC) behaviour” value is listed as “rapid brain penetration followed by washout”. The brain penetrance result (baseline (PET ligand only), IV, 0-60 minutes) is “confirmed brain penetrance”. Moreover, the brain uptake pattern result (summed images 0-60 minutes post injection (FIG. 7)) is reported as “Diffuse uptake was observed throughout the brain”.

These data come from patent US20240383871A1, “COMPOUND USEFUL FOR PET-IMAGING OF BRUTON’S TYROSINE KINASE” (Bristol-Myers Squibb Company, priority 2021, published 2024).
